Assay results taken from ChEMBL document CHEMBL1148472, “Jatrophane diterpenes as modulators of multidrug resistance. Advances of structure-activity relationships and discovery of the potent lead pepluanin A” (J Med Chem, 2004).

Target: ATP-dependent translocase ABCB1 (Homo sapiens, UniProt P08183)
Test: TP_TRANSPORTER: cell accumulation of daunomycin in human K562/R7 leukemic cells
Format: functional, cell-based

Chain of ATP-dependent translocase ABCB1 (P08183 whole entry): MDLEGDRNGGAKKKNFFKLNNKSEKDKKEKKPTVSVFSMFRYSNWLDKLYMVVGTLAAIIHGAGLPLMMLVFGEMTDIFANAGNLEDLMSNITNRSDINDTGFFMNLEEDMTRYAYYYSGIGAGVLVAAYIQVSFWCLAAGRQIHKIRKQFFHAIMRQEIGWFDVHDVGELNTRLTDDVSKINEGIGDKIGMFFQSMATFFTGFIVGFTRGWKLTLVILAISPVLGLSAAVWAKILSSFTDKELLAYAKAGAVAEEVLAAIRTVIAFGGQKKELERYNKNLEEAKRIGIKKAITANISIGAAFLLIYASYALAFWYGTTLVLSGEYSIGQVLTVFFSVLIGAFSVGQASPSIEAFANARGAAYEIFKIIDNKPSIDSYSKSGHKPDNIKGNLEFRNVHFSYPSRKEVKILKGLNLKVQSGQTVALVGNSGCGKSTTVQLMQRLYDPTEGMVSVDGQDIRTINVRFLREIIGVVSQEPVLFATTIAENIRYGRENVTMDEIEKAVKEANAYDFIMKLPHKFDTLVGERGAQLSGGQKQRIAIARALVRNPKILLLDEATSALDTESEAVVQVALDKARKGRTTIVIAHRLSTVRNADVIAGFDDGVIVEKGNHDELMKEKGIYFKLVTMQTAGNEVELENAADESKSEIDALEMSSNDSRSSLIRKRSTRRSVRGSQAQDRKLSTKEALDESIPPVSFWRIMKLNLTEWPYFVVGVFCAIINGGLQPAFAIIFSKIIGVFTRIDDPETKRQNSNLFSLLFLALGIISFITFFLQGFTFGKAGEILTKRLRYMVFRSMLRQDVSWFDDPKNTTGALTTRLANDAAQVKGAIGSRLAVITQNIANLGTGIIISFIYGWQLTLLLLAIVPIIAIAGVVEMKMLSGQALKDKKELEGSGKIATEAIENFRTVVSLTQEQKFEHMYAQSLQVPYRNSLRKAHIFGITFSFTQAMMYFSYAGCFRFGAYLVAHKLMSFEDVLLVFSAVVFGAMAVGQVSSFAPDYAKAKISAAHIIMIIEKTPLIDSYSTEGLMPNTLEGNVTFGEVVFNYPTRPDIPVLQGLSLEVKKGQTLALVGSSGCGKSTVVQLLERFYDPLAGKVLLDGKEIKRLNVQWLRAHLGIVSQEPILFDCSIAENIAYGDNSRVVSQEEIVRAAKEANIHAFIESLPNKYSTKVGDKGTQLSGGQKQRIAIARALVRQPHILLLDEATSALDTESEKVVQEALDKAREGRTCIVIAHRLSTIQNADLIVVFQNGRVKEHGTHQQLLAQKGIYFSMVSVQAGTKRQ

Activity: inhibitor [+]
Compound: C=C1[C@@H](OC(C)=O)[C@@H](OC(C)=O)[C@@H](OC(=O)c2cccnc2)C(C)(C)/C=C/[C@H](C)[C@H](OC(C)=O)[C@@]2(O)C[C@@](C)(OC(C)=O)[C@H](OC(=O)c3ccccc3)[C@@H]2[C@H]1OC(C)=O [PEPLUANIN]
